Values quoted from earlier work as cited in PubChem BioAssay AID1259409 (Chemical Carcinogenesis Research Information System (CCRIS), 2018).
Several values for one entry are separate records, joined by “and”; a condition that tells them apart may be missing. Identical values can stand only once.

Tested on: rodent chemically induced tumor inhibition, incidence and multiplicity
Test: CCRIS tumor inhibitor studies
Conditions: Route [Inhibitor]: ORAL

NC(=O)c1cccnc1
tumour outcome (control, treated, inhibition, significance) (Carcinogen: 3'-METHYL-4-DIMETHYLAMINOAZOBENZENE, 55-80-1, Dose [Inhibitor]: 0.29% IN DIET DAILY FOR 4 WK STARTING 4 WK AFTER THE START OF CARCINOGEN TREATMENT (STUDY DURATION: 20 WK), Species: RAT, Target Tissue: Type of Lesion: LIVER: TUMOR, Dose [Carcinogen]: 0.064% IN DIET DAILY FOR 4 WK THEN A 4 WK CARCINOGEN-FREE PERIOD FOLLOWED BY 0.048% FOR AN ADDITIONAL 4 WK, Promoter: NONE USED): 4/10 (40%), 10/11 (91%), -128%, not calculated | tumour outcome (control, treated, inhibition, significance) (Carcinogen: 3'-METHYL-4-DIMETHYLAMINOAZOBENZENE, 55-80-1, Dose [Inhibitor]: 0.29% IN DIET DAILY FOR 4 WK STARTING AFTER COMPLETION OF CARCINOGEN TREATMENT (STUDY DURATION: 20 WK), Species: RAT, Target Tissue: Type of Lesion: LIVER: TUMOR, Dose [Carcinogen]: 0.064% IN DIET DAILY FOR 4 WK, Promoter: NONE USED): 7/15 (47%), 0/17 (0%), 100%, not calculated | tumour outcome (control, treated, inhibition, significance) (Carcinogen: 3'-METHYL-4-DIMETHYLAMINOAZOBENZENE, 55-80-1, Dose [Inhibitor]: 0.29% IN DIET DAILY FOR 4 WK STARTING AFTER COMPLETION OF THE FIRST 4 WK OF CARCINOGEN TREATMENT (STUDY DURATION: 20 WK), Species: RAT, Target Tissue: Type of Lesion: LIVER: TUMOR, Dose [Carcinogen]: 0.064% IN DIET DAILY FOR 4 WK BEFORE AND ANOTHER 4 WK AFTER AGENT TREATMENT, Promoter: NONE USED): 7/15 (47%), 9/14 (64%), -36%, not calculated and 7/9 (78%), 6/9 (67%), 14%, not calculated | tumour outcome (control, treated, inhibition, significance) (Carcinogen: 7,12-DIMETHYLBENZ[A]ANTHRACENE, 57-97-6, Dose [Inhibitor]: 0.2% IN DRINKING WATER DAILY STARTING 4 WK BEFORE CARCINOGEN TREATMENT AND CONTINUING FOR DURATION OF THE STUDY (STUDY D, Species: MOUSE, Strain/Sex: 101/MALE, FEMALE, Target Tissue: Type of Lesion: SKIN: PAPILLOMA, Dose [Carcinogen]: 225 UG IN 0.15 ML ACETONE ONCE, Promoter: CROTON OIL, 8001-28-3): 17/19 (89%), 17/19 (89%), 0%, not calculated | tumour outcome (control, treated, inhibition, significance) (Carcinogen: N-NITROSOBIS(2-OXOPROPYL)AMINE, 60599-38-4, Dose [Inhibitor]: 0, 0.2% IN DRINKING WATER FOR 49 WK BEGINNING POST CARCINOGEN TREATMENT (STUDY DURATION: 52 WK), Species: HAMSTER, Strain/Sex: SYRIAN/FEMALE, Target Tissue: Type of Lesion: PANCREAS: ADENOCARCINOMA, Dose [Carcinogen]: 10 MG/KG 1/WK FOR 3 WK, Promoter: NONE USED): 18/30 (60%), 18/29 (62%), -3%, not significant | tumour outcome (control, treated, inhibition, significance) (Carcinogen: N-NITROSOBIS(2-OXOPROPYL)AMINE, 60599-38-4, Dose [Inhibitor]: 0, 0.2% IN DRINKING WATER FOR 49 WK POST CARCINOGEN TREATMENT (STUDY DURATION: 52 WK), Species: HAMSTER, Strain/Sex: SYRIAN GOLDEN/FEMALE, Target Tissue: Type of Lesion: KIDNEY: NEPHROBLASTOMA, Dose [Carcinogen]: 10 MG/KG BW 1/WK FOR FIRST 3 WK OF STUDY DURATION, Promoter: NONE): 2/30 (7%), 0/29 (0%), 100%, not significant | outcome (Carcinogen: N-NITROSOBIS(2-OXOPROPYL)AMINE, 60599-38-4, Dose [Inhibitor]: 0, 0.2% IN DRINKING WATER FOR 49 WK POST CARCINOGEN TREATMENT (STUDY DURATION: 52 WK), Species: HAMSTER, Strain/Sex: SYRIAN GOLDEN/FEMALE, Target Tissue: Type of Lesion: KIDNEY: RENAL CELL ADENOMA, Dose [Carcinogen]: 10 MG/KG BW 1/WK FOR FIRST 3 WK OF STUDY DURATION, Promoter: NONE): 0/30 (0%), 1/29 (3%),-%, not significant | tumour outcome (control, treated, inhibition, significance) (Carcinogen: N-NITROSOBIS(2-OXOPROPYL)AMINE, 60599-38-4, Dose [Inhibitor]: 0, 0.2% IN DRINKING WATER FOR 49 WK POST CARCINOGEN TREATMENT (STUDY DURATION: 52 WK), Species: HAMSTER, Strain/Sex: SYRIAN GOLDEN/FEMALE, Target Tissue: Type of Lesion: KIDNEY: RENAL CELL CARCINOMA, Dose [Carcinogen]: 10 MG/KG BW 1/WK FOR FIRST 3 WK OF STUDY DURATION, Promoter: NONE): 1/30 (3%), 1/29 (3%), 0%, not significant | tumour outcome (control, treated, inhibition, significance) (Carcinogen: N-NITROSOBIS(2-OXOPROPYL)AMINE, 60599-38-4, Dose [Inhibitor]: 0, 0.2% IN DRINKING WATER FOR 49 WK POST CARCINOGEN TREATMENT (STUDY DURATION: 52 WK), Species: HAMSTER, Strain/Sex: SYRIAN GOLDEN/FEMALE, Target Tissue: Type of Lesion: LIVER: CHOLANGIOCELLULAR ADENOMA, Dose [Carcinogen]: 10 MG/KG BW 1/WK FOR FIRST 3 WK OF STUDY DURATION, Promoter: NONE): 1/30 (3%), 2/29 (7%), -133%, not significant | outcome (Carcinogen: N-NITROSOBIS(2-OXOPROPYL)AMINE, 60599-38-4, Dose [Inhibitor]: 0, 0.2% IN DRINKING WATER FOR 49 WK POST CARCINOGEN TREATMENT (STUDY DURATION: 52 WK), Species: HAMSTER, Strain/Sex: SYRIAN GOLDEN/FEMALE, Target Tissue: Type of Lesion: LIVER: CHOLANGIOCELLULAR CARCINOMA, Dose [Carcinogen]: 10 MG/KG BW 1/WK FOR FIRST 3 WK OF STUDY DURATION, Promoter: NONE): 0/30 (0%), 5/29 (17%), -%, p<0.05 | outcome (Carcinogen: N-NITROSOBIS(2-OXOPROPYL)AMINE, 60599-38-4, Dose [Inhibitor]: 0, 0.2% IN DRINKING WATER FOR 49 WK POST CARCINOGEN TREATMENT (STUDY DURATION: 52 WK), Species: HAMSTER, Strain/Sex: SYRIAN GOLDEN/FEMALE, Target Tissue: Type of Lesion: LIVER: CYSTADENOMA, Dose [Carcinogen]: 10 MG/KG BW 1/WK FOR FIRST 3 WK OF STUDY DURATION, Promoter: NONE): 0/30 (0%), 0/29 (0%), 0%, not significant | tumour outcome (control, treated, inhibition, significance) (Carcinogen: N-NITROSOBIS(2-OXOPROPYL)AMINE, 60599-38-4, Dose [Inhibitor]: 0, 0.2% IN DRINKING WATER FOR 49 WK POST CARCINOGEN TREATMENT (STUDY DURATION: 52 WK), Species: HAMSTER, Strain/Sex: SYRIAN GOLDEN/FEMALE, Target Tissue: Type of Lesion: LIVER: HEPATOCELLULAR ADENOMA, Dose [Carcinogen]: 10 MG/KG BW 1/WK FOR FIRST 3 WK OF STUDY DURATION, Promoter: NONE): 2/30 (7%), 4/29 (14%), -100%, not significant | tumour outcome (control, treated, inhibition, significance) (Carcinogen: N-NITROSOBIS(2-OXOPROPYL)AMINE, 60599-38-4, Dose [Inhibitor]: 0, 0.2% IN DRINKING WATER FOR 49 WK POST CARCINOGEN TREATMENT (STUDY DURATION: 52 WK), Species: HAMSTER, Strain/Sex: SYRIAN GOLDEN/FEMALE, Target Tissue: Type of Lesion: LIVER: HEPATOCELLULAR CARCINOMA, Dose [Carcinogen]: 10 MG/KG BW 1/WK FOR FIRST 3 WK OF STUDY DURATION, Promoter: NONE): 2/30 (7%), 1/29 (3%), 57%, not significant | tumour outcome (control, treated, inhibition, significance) (Carcinogen: N-NITROSOBIS(2-OXOPROPYL)AMINE, 60599-38-4, Dose [Inhibitor]: 0, 0.2% IN DRINKING WATER FOR 49 WK POST CARCINOGEN TREATMENT (STUDY DURATION: 52 WK), Species: HAMSTER, Strain/Sex: SYRIAN GOLDEN/FEMALE, Target Tissue: Type of Lesion: LUNG: ADENOCARCINOMA, Dose [Carcinogen]: 10 MG/KG BW 1/WK FOR FIRST 3 WK OF STUDY DURATION, Promoter: NONE): 11/30 (37%), 8/29 (28%), 24%, not significant | tumour outcome (control, treated, inhibition, significance) (Carcinogen: N-NITROSOBIS(2-OXOPROPYL)AMINE, 60599-38-4, Dose [Inhibitor]: 0, 0.2% IN DRINKING WATER FOR 49 WK POST CARCINOGEN TREATMENT (STUDY DURATION: 52 WK), Species: HAMSTER, Strain/Sex: SYRIAN GOLDEN/FEMALE, Target Tissue: Type of Lesion: LUNG: ADENOMA, Dose [Carcinogen]: 10 MG/KG BW 1/WK FOR FIRST 3 WK OF STUDY DURATION, Promoter: NONE): 15/30 (50%), 18/29 (62%), -24%, not significant | tumour outcome (control, treated, inhibition, significance) (Carcinogen: N-NITROSOBIS(2-OXOPROPYL)AMINE, 60599-38-4, Dose [Inhibitor]: 0, 0.2% IN DRINKING WATER FOR 49 WK POST CARCINOGEN TREATMENT (STUDY DURATION: 52 WK), Species: HAMSTER, Strain/Sex: SYRIAN GOLDEN/FEMALE, Target Tissue: Type of Lesion: LUNG: SQUAMOUS CELL CARCINOMA, Dose [Carcinogen]: 10 MG/KG BW 1/WK FOR FIRST 3 WK OF STUDY DURATION, Promoter: NONE): 2/30 (7%), 0/29 (0%), 100%, not significant | tumour outcome (control, treated, inhibition, significance) (Carcinogen: N-NITROSOBIS(2-OXOPROPYL)AMINE, 60599-38-4, Dose [Inhibitor]: 0, 0.2% IN DRINKING WATER FOR 49 WK POST CARCINOGEN TREATMENT (STUDY DURATION: 52 WK), Species: HAMSTER, Strain/Sex: SYRIAN GOLDEN/FEMALE, Target Tissue: Type of Lesion: PANCREAS (DUCTAL): ADENOCARCINOMA, Dose [Carcinogen]: 10 MG/KG BW 1/WK FOR FIRST 3 WK OF STUDY DURATION, Promoter: NONE): 18/30 (60%), 18/29 (62%), -3%, not significant | tumour outcome (control, treated, inhibition, significance) (Carcinogen: N-NITROSOBIS(2-OXOPROPYL)AMINE, 60599-38-4, Dose [Inhibitor]: 0, 0.2% IN DRINKING WATER FOR 49 WK POST CARCINOGEN TREATMENT (STUDY DURATION: 52 WK), Species: HAMSTER, Strain/Sex: SYRIAN GOLDEN/FEMALE, Target Tissue: Type of Lesion: THYROID: ADENOMA, Dose [Carcinogen]: 10 MG/KG BW 1/WK FOR FIRST 3 WK OF STUDY DURATION, Promoter: NONE): 1/30 (3%), 0/29 (0%), 100%, not significant
